SMILES strings stand for the structures.

The test addresses T1, rat NaP2b (SLC34A2) (Rattus norvegicus, UniProt Q9JJ09).
T1 construct: host or cells: HEK293
T1 sequence (Q9JJ09 1-695): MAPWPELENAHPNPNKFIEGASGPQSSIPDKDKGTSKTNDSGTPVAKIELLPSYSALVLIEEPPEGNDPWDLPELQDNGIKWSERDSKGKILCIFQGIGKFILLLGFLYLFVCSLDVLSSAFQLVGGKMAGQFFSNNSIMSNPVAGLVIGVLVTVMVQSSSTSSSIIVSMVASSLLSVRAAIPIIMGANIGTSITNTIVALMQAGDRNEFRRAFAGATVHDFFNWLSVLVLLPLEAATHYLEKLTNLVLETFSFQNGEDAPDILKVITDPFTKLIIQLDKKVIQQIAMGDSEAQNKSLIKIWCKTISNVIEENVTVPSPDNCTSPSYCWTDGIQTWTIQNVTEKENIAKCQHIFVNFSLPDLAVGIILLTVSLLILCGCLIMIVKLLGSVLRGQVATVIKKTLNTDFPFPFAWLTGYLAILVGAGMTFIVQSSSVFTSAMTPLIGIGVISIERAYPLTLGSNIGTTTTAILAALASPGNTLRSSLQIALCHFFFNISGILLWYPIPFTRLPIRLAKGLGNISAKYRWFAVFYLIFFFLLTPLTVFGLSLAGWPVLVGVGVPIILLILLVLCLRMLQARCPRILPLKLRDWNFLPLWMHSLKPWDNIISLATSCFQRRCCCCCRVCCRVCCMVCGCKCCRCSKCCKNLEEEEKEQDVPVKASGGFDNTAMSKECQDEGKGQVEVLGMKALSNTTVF
Description: Inhibition of NaP2b-mediated Pi (33P) uptake in transfected HEK293 cells, rat NaP2b. It is filed as cell-based. To be noted: 33P Pi uptake, 0.1 mM phosphate, value given as pIC50 range. The method in brief: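 HEK293 cells were transiently transfected with NaP2b cDNA using Lipofectamine and grown near confluence. Compounds were tested at twelve concentrations from 0.1 nM to 30 uM in duplicate, and 33P-phosphate uptake was counted by scintillation after lysis. Results are expressed as pIC50.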
On to `CCN(CC)CCN(C)Cc1cccc(C(=O)Nc2ccc(Cl)cc2-c2cc(NCc3cccc(C(F)(F)F)c3)ncn2)c1` [Example 68, N-(4-Chloro-2-(6-((3-(trifluoromethyl)benzyl)amino)pyrimidin-4-yl)phenyl)-3-(((2-(diethylamino)ethyl)(methyl)amino)methyl)benzamide], for which the IC50 was 10 to 31.6 µM.
For the compound `O=C(O)CCSCc1cccc(C(=O)Nc2ccc(N3CCCCC3)cc2-c2cc(NCc3cccc(C(F)(F)F)c3)ccn2)c1` [Example 69, 3-((3-((4-(Piperidin-1-yl)-2-(4-((3-(trifluoromethyl)benzyl)amino)pyridin-2-yl)phenyl)carbamoyl)benzyl)thio)propanoic acid], the IC50 was 10 to 31.6 µM.
In the case of `O=C(O)CCSCc1cccc(C(=O)Nc2ccc(N3CCCCC3)cc2-c2cc(NCCc3cccc(C(F)(F)F)c3)ccn2)c1` [Example 70, 3-((3-((4-(Piperidin-1-yl)-2-(4-((3-(trifluoromethyl)phenethyl)amino)pyridin-2-yl)phenyl)carbamoyl)benzyl)thio)propanoic acid], the IC50 was 10 to 31.6 µM.
`Cc1ccc(Nc2ccnc(-c3cc(N4CCCCC4)ccc3NC(=O)c3cccc(CSCCC(=O)O)c3)c2)cc1C` [Example 71, 3-((3-((2-(4-((3,4-Dimethylphenyl)amino)pyridin-2-yl)-4-(piperidin-1-yl)phenyl)carbamoyl)benzyl)thio)propanoic acid] gave an IC50 of 10 to 31.6 µM.
`O=C(O)CCSCc1cccc(C(=O)Nc2ccc(N3CCCCC3)cc2-c2cc(Nc3cccc(C(F)(F)F)c3)ccn2)c1` [Example 72, 3-((3-((4-(Piperidin-1-yl)-2-(4-((3-(trifluoromethyl)phenyl)amino)pyridin-2-yl)phenyl)carbamoyl)benzyl)thio)propanoic acid] showed an IC50 of 10 to 31.6 µM.
In turn, `O=C(O)CCSCc1cccc(C(=O)Nc2ccc(N3CCCCC3)cc2-c2cc(NC(=O)c3cccc(C(F)(F)F)c3)ccn2)c1` [Example 73, 3-((3-((4-(Piperidin-1-yl)-2-(4-(3-(trifluoromethyl)benzamido)pyridin-2-yl)phenyl)carbamoyl)benzyl)thio)propanoic acid] gave an IC50 of 10 to 31.6 µM.
The compound `Cc1ccc(C(=O)Nc2ccnc(-c3cc(N4CCCCC4)ccc3NC(=O)c3cccc(CSCCC(=O)O)c3)c2)cc1C` [Example 74, 3-((3-((2-(4-(3,4-Dimethylbenzamido)pyridin-2-yl)-4-(piperidin-1-yl)phenyl)carbamoyl)benzyl)thio)propanoic acid] showed an IC50 of 10 to 31.6 µM.
To `O=C(NCc1cccc(C(F)(F)F)c1)c1ccnc(-c2cc(N3CCCCC3)ccc2NC(=O)c2cccc(Cn3cc(CCO)nn3)c2)c1` [Example 75, 2-(2-(3-((4-(2-Hydroxyethyl)-1H-1,2,3-triazol-1-yl)methyl)benzamido)-5-(piperidin-1-yl)phenyl)-N-(3-(trifluoromethyl)benzyl)isonicotinamide] belongs 10 to 31.6 µM; to `CC(Nc1cc(-c2cc(N3CCCCC3)ccc2NC(=O)c2cccc(CSCCC(=O)O)c2)ncn1)c1cccc(C(F)(F)F)c1` (stereo not drawn) [Example 76, 3-((3-((4-(Piperidin-1-yl)-2-(6-((1-(3-(trifluoromethyl)phenyl)ethyl)amino)pyrimidin-4-yl)phenyl)carbamoyl)benzyl)thio)propanoic acid], 10 to 31.6 µM; to `CC(NC(=O)c1ccnc(-c2cc(N3CCCCC3)ccc2NC(=O)c2cccc(CSCCC(=O)O)c2)c1)c1cccc(C(F)(F)F)c1` (stereo not drawn) [Example 77, 3-(3-(4-(piperidin-1-yl)-2-(4-(1-(3-(trifluoromethyl)phenyl)ethylcarbamoyl)pyridin-2-yl)phenylcarbamoyl)benzylthio)propanoic acid], 1 to 7.94 µM.
To `O=C(O)CCSCc1cccc(C(=O)Nc2ccc(N3CCCCC3)cc2-c2cc(C(=O)NCc3ccc(N4CCOCC4)cc3)ccn2)c1` [Example 78, 3-(3-(2-(4-(4-Morpholinobenzylcarbamoyl)pyridin-2-yl)-4-(piperidin-1-yl)-phenylcarbamoyl)benzylthio) propanoic acid] belongs 10 to 31.6 µM; to `O=C(O)CCSCc1cccc(C(=O)Nc2ccc(N3CCCCC3)cc2-c2cc(C(=O)NCc3ccc(-n4cccn4)cc3)ccn2)c1` [Example 79, 3-(3-((2-(4-((4-(1H-Pyrazol-1-yl)benzyl)carbamoyl)pyridin-2-yl)-4-(piperidin-1-yl)phenyl)carbamoyl)benzylthio)propanoic acid], 10 to 31.6 µM.
To `CC(=O)N1CCN(CCN(C)C(=O)c2cccc(C(=O)Nc3ccc(N4CCCCC4)cc3-c3cc(C(=O)NCc4cccc(C(F)(F)F)c4)ccn3)c2)CC1` [Example 81, N1-(2-(4-Acetylpiperazin-1-yl)ethyl)-N1-methyl-N3-(4-(piperidin-1-yl)-2-(4-(3-(trifluoromethyl)benzylcarbamoyl)pyridin-2-yl)phenyl)isophthalamide] belongs 1 to 7.94 µM; to `CN1CCN(CCN(C)C(=O)c2cccc(C(=O)Nc3ccc(N4CCCCC4)cc3-c3cc(C(=O)NCc4cccc(C(F)(F)F)c4)ccn3)c2)CC1` [Example 82, N1-Methyl-N1-(2-(4-methylpiperazin-1-yl)ethyl)-N3-(4-(piperidin-1-yl)-2-(4-((3-(trifluoromethyl)benzyl)carbamoyl)pyridin-2-yl)phenyl)isophthalamide], 1 to 7.94 µM; to `CN(CCN1CCN(S(C)(=O)=O)CC1)C(=O)c1cccc(C(=O)Nc2ccc(N3CCCCC3)cc2-c2cc(C(=O)NCc3cccc(C(F)(F)F)c3)ccn2)c1` [Example 83, N1-methyl-N1-(2-(4-(methylsulfonyl)piperazin-1-yl)ethyl)-N3-(4-(piperidin-1-yl)-2-(4-(3-(trifluoromethyl)benzylcarbamoyl)pyridin-2-yl)phenyl)isophthalamide], 1 to 7.94 µM.
In turn, `O=C(O)CCSCc1cccc(C(=O)Nc2ccc(N3CCCCC3)cc2-c2cc(C(=O)Nc3cccc(C(F)(F)F)c3)ccn2)c1` [Example 84] showed an IC50 of 1 to 7.94 µM.
As for `Cc1cc(C(=O)NCc2cccc(C(F)(F)F)c2)cc(-c2cc(N3CCCCC3)ccc2NC(=O)c2cccc(CSCCC(=O)O)c2)n1` [Example 85], the IC50 is 1 to 7.94 µM.
For `O=C(O)CCSCc1cccc(C(=O)Nc2ccc(N3CCCCC3)cc2-c2cc(C(=O)NCc3cccc(C(F)(F)F)c3)cc(Cl)n2)c1` [Example 86] the value was 1 to 7.94 µM.
For `O=C(O)CCSCc1cccc(C(=O)Nc2ccc(N3CCCCC3)cc2-c2cc(C(=O)NCc3cccc(C(F)(F)F)c3)ncn2)c1` [Example 87] the value was 10 to 31.6 µM.
Consider `O=C(O)CCSCc1cccc(C(=O)Nc2ccc(N3CCCCC3)cc2-c2nccc(C(=O)NCc3cccc(C(F)(F)F)c3)c2F)c1` [Example 88], for which the IC50 is 10 to 31.6 µM.
For `O=C(O)CCSCc1cccc(C(=O)Nc2ccc(N3CCCCC3)cc2-c2cc(C(=O)NCc3cccc(C(F)(F)F)c3)c(F)cn2)c1` [Example 89] the value was 1 to 7.94 µM.
To `O=C(O)CCSCc1cccc(C(=O)Nc2ccc(N3CCCCC3)cc2-c2cc(C(=O)NCc3cccc(C(F)(F)F)c3)c(Cl)cn2)c1` [Example 90] belongs 10 to 31.6 µM.
For `O=C(NCc1cccc(C(F)(F)F)c1)c1ccnc(-c2cc(N3CCCCC3)ccc2NC(=O)c2cccc(CSCCCS(=O)(=O)O)c2)c1` [Example 91] the value was 10 to 31.6 µM; for `CC(C)(CCO)SCc1cccc(C(=O)Nc2ccc(N3CCCCC3)cc2-c2cc(C(=O)NCc3cccc(C(F)(F)F)c3)ccn2)c1` [Example 92], 1 to 7.94 µM; for `O=C(O)CCSCc1cccc(C(=O)Nc2ccc(N3CCCCC3)cc2-c2cc(C(F)(F)c3cccc(C(F)(F)F)c3)ccn2)c1` [Example 93], 10 to 31.6 µM.
Take `O=C(O)CCSCc1cccc(C(=O)Nc2ccc(N3CCCCC3)cc2-c2cc(Oc3cccc(C(F)(F)F)c3)ccn2)c1` [Example 94]: the IC50 was 10 to 31.6 µM.
To `C[C@@H]1CN(c2ccc(NC(=O)c3cccc(C(=O)N(C)CCN4CCOCC4)c3)c(-c3cc(C(=O)NCc4cccc(C(F)(F)F)c4)ccn3)c2)C[C@H](C)O1` [Example 95] belongs 10 to 31.6 µM; to `CN(CCN1CCOCC1)C(=O)c1cccc(C(=O)Nc2ccc(N3CCN(c4ncccn4)CC3)cc2-c2cc(C(=O)NCc3cccc(C(F)(F)F)c3)ccn2)c1` [Example 96], 10 to 31.6 µM; to `O=C(O)CCSCc1cccc(C(=O)Nc2ccc(N3CCCCC3)cc2-c2cc(OCc3cccc(C(F)(F)F)c3)ccn2)c1` [Example 98], 10 to 31.6 µM.
Turning to `CN(CCN1CCOCC1)C(=O)c1cccc(C(=O)Nc2ccc(N3CCCCC3)cc2-c2cc(OCc3cccc(C(F)(F)F)c3)ccn2)c1` [Example 99], the IC50 is 10 to 31.6 µM.
The compound `CC(C)OCCOc1ccc(NC(=O)c2cccc(C(=O)N(C)CCN3CCOCC3)c2)c(-c2cc(C(=O)NCc3cccc(C(F)(F)F)c3)ccn2)c1` [Example 101] had an IC50 of 1 to 7.94 µM.
For `COC[C@@H]1CCCN1c1ccc(NC(=O)c2cccc(C(=O)N(C)CCN3CCOCC3)c2)c(-c2cc(C(=O)NCc3cccc(C(F)(F)F)c3)ccn2)c1` [Example 102] the value was 10 to 31.6 µM; for `COC[C@H]1CCCN1c1ccc(NC(=O)c2cccc(C(=O)N(C)CCN3CCOCC3)c2)c(-c2cc(C(=O)NCc3cccc(C(F)(F)F)c3)ccn2)c1` [Example 103], 10 to 31.6 µM.

Usually IC50 stands for the concentration at which inhibition is half-maximal. A low value points to greater potency.

These data come from patent US20140023611A1 (priority 2010, published 2014).
